Experimental data published in patent publication US12377037B2, “Cleavable comonomer strategy for accelerating removal of gel nail polish” (MASSACHUSETTS INSTITUTE OF TECHNOLOGY, priority 2022, dated 2025).

Assays:
Assay type in all cases: physicochemical
[1] = Solubility study of DOT derivatives in nail polish (supersaturated solution, quantitative 1H NMR); settings: for Solubility (wt % in polish): nail polish (clear topcoat), supersaturated solution filtered through 0.25 μm PTFE, quantitative 1H NMR; for Notes: solubility / appearance in nail polish solution: standard nail polish solution
Description: The solubility of various DOT derivatives in nail polish was observed by generating a supersaturated solution of the compounds in nail polish (clear topcoat). The supersaturated solution was filtered through a 0.25 μm PTFE syringe filter, and a known mass of an internal NMR standard (bis-1,4-trimethylsilylbenzene) was added. The amount of the compound that was dissolved in the nail polish was then determined by quantitative ^1H NMR. The solubility was taken as the amount of the weight fraction of the compound dissolved in nail polish in a supersaturated solution.

[2] = Disappearance of visible absorbance (yellowness) of polymer compositions under UV irradiation, image analysis in ImageJ; settings: upon polymerization
Description: In some embodiments, the polymer composition is prepared by polymerizing the first, second, and third monomers. In certain embodiments, the third monomer is added subsequently to a mixture of at least the first and second monomers. When added to the polymer composition, the third monomer may contribute a visible absorbance that obscures the intended color of the polymer. […] In some embodiments, UV irradiation initiates the polymerization process. The disappearance of the visible absorbance can be measured by image analysis in ImageJ. […] As shown, the visible absorbance of polymer compositions with concentrations of 1, 2, and 5 wt % 2SiPr-DOT disappears after 20 minutes of UV irradiation. Compositions with lower concentrations show a disappearance of viable absorbance between about 5 and about 10 minutes of UV irradiation.

[3] = Bench stability noted for DOT derivatives

| Structure (SMILES) | Solubility (wt % in polish) [1] | Solubility in nail polish, comparison in words ([1]; nail polish, versus DOT or 2S^sBu-DOT) | Notes: solubility / appearance in nail polish solution [1] | Colour contributed to the polymer (visible absorbance) [2] | Notes: bench stability [3] |
| --- | --- | --- | --- | --- | --- |
| CC(C)Sc1ccc2c(c1)-c1ccccc1COC2=S [2S^iPr-DOT, 2-(isopropylthio)dibenzo[c,e]oxepine-5(7H)-thione] | 7.64 wt % in polish | superior solubility in nail polish over DOT or 2S^sBu-DOT | Yellow crystalline solid; shows superior solubility in standard nail polish solution | does not contribute a permanent color | – |
| CCC(C)Sc1ccc2c(c1)-c1ccccc1COC2=S (centres unmarked) [2S^sBu-DOT] | 2.00 wt % in polish | – | cloudy and inhomogeneous in nail polish solution | – | not bench stable |
| S=C1OCc2ccccc2-c2ccccc21 [DOT, dibenzo[c,e]oxepine-5(7H)-thione, reference compound] | 2.23 wt % in polish | – | – | – | – |
